Measurements as given in PubChem BioAssay AID286 (DTP/NCI, 2004).
Values joined by “and” are separate entries in the source; they are usually repeats but may differ in a detail not shown here. Identical values can stand only once. Inconclusive results and toxic doses are left out. How the source made its calls: active means survival T/C of 150% or more; inactive means T/C below 125% in these data. Starred links: 1 amine or outer side, 2 acyl side, 3 side chain; linkers in the order of their positions; H or OH if unused. Positions of bridges follow the written chain, without caps; N, C: chain ends. Non-standard residues stand in square brackets, D forms with d. Residues, ends and D or L forms follow the SMILES beside them. Chains are numbered I, II in the order given. ξ: configuration not given here. *: point of attachment. Quinaldoyl(3-OH,6-OMe) = COc1ccc2nc(C(=O)*)c(O)cc2c1; X1 = CCC(=O)OC1CC=NN([*:1])C1C(=O)[*:2]; X2 = CC(=O)OC1CC=NN([*:1])C1C(=O)[*:2]; ξNMeVal(3-OH) = CNC(C(=O)O)C(C)(C)O; Sar = CNCC(=O)O

Test system: BDF1 mice, M5076 sarcoma ip, median survival T/C
Test: NCI In Vivo Anticancer Drug Screen. Data for tumor model Sarcoma M5076 (intraperitoneal) in B6D2F1 (BDF1) mice
Settings: endpoint: median survival time, higher = longer survival
Procedure: The antitumor activity of compounds was measured in mice bearing transplantable tumors. Survival or tumor size were measured and the results are expressed as the measurement made in the treated group (T) divided by the measurement made in the vehicle treated control group (C). The tumor model used in this assay is Sarcoma M5076 (intraperitoneal) in B6D2F1 (BDF1) mice

Measured: T/C

CCC(=O)OC1CC=NN2C(=O)C(NC(=O)c3nc4ccc(OC)cc4cc3O)COC(=O)C(C(C)(C)O)N(C)C(=O)CN(C)C(=O)CNC(=O)C3C(OC(C)=O)CC=NN3C(=O)C(NC(=O)c3nc4ccc(OC)cc4cc3O)COC(=O)C(C(C)(C)O)N(C)C(=O)CN(C)C(=O)CNC(=O)C12 (configuration not stated) (I: {Quinaldoyl(3-OH,6-OMe)}-S[X1]G[Sar][ξNMeVal(3-OH)] / II: {Quinaldoyl(3-OH,6-OMe)}-S[X2]G[Sar][ξNMeVal(3-OH)]; ester I:1-II:C, I:C-II:1; configuration not given here)
inactive: dose: 18.75 micrograms/kg/injection, schedule: Q01DX009 (ip), vehicle: DMSO 117 % of control
active: dose: 37.5 micrograms/kg/injection, schedule: Q01DX009 (ip), vehicle: DMSO 165 % of control and 169 % of control | dose: 75.0 micrograms/kg/injection, schedule: Q01DX009 (ip), vehicle: DMSO 191 % of control and 160 % of control | dose: 150.0 micrograms/kg/injection, schedule: Q01DX009 (ip), vehicle: DMSO 165 % of control

CN=C(N)c1ccc(N=C(N)c2ccc(C(N)=Nc3ccc(C(N)=NC)cc3)cc2)cc1
active: dose: 15.0 mg/kg/injection, schedule: Q01DX005 (ip), vehicle: water 165 % of control | dose: 18.0 mg/kg/injection, schedule: Q01DX005 (ip), vehicle: saline 164 % of control | dose: 18.0 mg/kg/injection, schedule: Q01DX005 (ip), vehicle: water 164 % of control | dose: 30.0 mg/kg/injection, schedule: Q01DX005 (ip), vehicle: saline 180 % of control | dose: 30.0 mg/kg/injection, schedule: Q01DX005 (ip), vehicle: water 172 % of control
inactive: dose: 1.3 mg/kg/injection, schedule: Q01DX005 (iv), vehicle: saline 98 % of control | dose: 1.3 mg/kg/injection, schedule: Q01DX005 (iv), vehicle: water 100 % of control | dose: 3.6 mg/kg/injection, schedule: Q01DX005 (iv), vehicle: saline 104 % of control | dose: 3.6 mg/kg/injection, schedule: Q01DX005 (iv), vehicle: water 100 % of control | dose: 3.75 mg/kg/injection, schedule: Q01DX005 (iv), vehicle: water 99 % of control | dose: 3.75 mg/kg/injection, schedule: Q01DX005 (sc), vehicle: water 101 % of control | dose: 6.0 mg/kg/injection, schedule: Q01DX005 (iv), vehicle: saline 104 % of control | dose: 6.0 mg/kg/injection, schedule: Q01DX005 (iv), vehicle: water 99 % of control | dose: 7.5 mg/kg/injection, schedule: Q01DX005 (iv), vehicle: water 108 % of control | dose: 15.0 mg/kg/injection, schedule: Q01DX005 (sc), vehicle: water 120 % of control

Nc1nc(=S)c2[nH]cnc2[nH]1
active: dose: 6.0 mg/kg/injection, schedule: Q04DX005 (ip), vehicle: alkali diluted with saline 157 % of control
inactive: dose: 0.75 mg/kg/injection, schedule: Q04DX005 (ip), vehicle: alkali diluted with saline 101 % of control | dose: 2.0 mg/kg/injection, schedule: Q04DX005 (ip), vehicle: alkali diluted with saline 92 % of control

COC1C(O)CC(OC2CC(Oc3cc4cc5c(c(O)c4c(O)c3C)C(=O)[C@@H](OC3CC(OC4CC(OC6CC(C)(O)C(OC(C)=O)C(C)O6)C(O)C(C)O4)C(O)C(C)O3)[C@H]([C@H](OC)C(=O)[C@@H](O)[C@@H](C)O)C5)OC(C)C2OC(C)=O)OC1C (some centres not stated)
active: dose: 37.5 micrograms/kg/injection, schedule: Q01DX009 (ip), vehicle: water 168 % of control | dose: 75.0 micrograms/kg/injection, schedule: Q01DX009 (ip), vehicle: water 163 % of control

C=C1C(O)C2OC3(CCC(/C=C/C(C)C4CC5(C)SC5C5(OC(CC(C)(O)C(=O)O)CCC5O)O4)O3)CCC2OC1C(O)CC(C)C1OC2(CCCCO2)CCC1C (configuration not stated)
inactive: dose: 0.5 micrograms/kg/injection, schedule: Q01DX009 (ip), vehicle: saline + alcohol 108 % of control | dose: 1.0 micrograms/kg/injection, schedule: Q01DX009 (ip), vehicle: saline + alcohol 111 % of control | dose: 2.0 micrograms/kg/injection, schedule: Q01DX009 (ip), vehicle: saline + alcohol 120 % of control
active: dose: 2.5 micrograms/kg/injection, schedule: Q01DX009 (ip), vehicle: saline + alcohol 155 % of control

CS(C)(O)NC(N)=O
inactive: dose: 50.0 mg/kg/injection, schedule: Q04DX004 (ip), vehicle: water 104 % of control | dose: 100.0 mg/kg/injection, schedule: Q04DX004 (ip), vehicle: water 102 % of control | dose: 200.0 mg/kg/injection, schedule: Q04DX004 (ip), vehicle: water 104 % of control | dose: 400.0 mg/kg/injection, schedule: Q04DX004 (ip), vehicle: water 100 % of control | dose: 800.0 mg/kg/injection, schedule: Q04DX004 (ip), vehicle: water 107 % of control

C[C@@](O)(/C=C/[C@H]1CC=CC(=O)O1)[C@@H](C[C@@H](O)\C=C/C=C\C=C\CO)OP(=O)(O)O
inactive: dose: 1.0 mg/kg/injection, schedule: Q01DX009 (ip), vehicle: water 112 % of control | dose: 2.0 mg/kg/injection, schedule: Q01DX009 (ip), vehicle: water 106 % of control | dose: 4.0 mg/kg/injection, schedule: Q01DX009 (ip), vehicle: water 98 % of control | dose: 8.0 mg/kg/injection, schedule: Q01DX009 (ip), vehicle: water 120 % of control

NC1=NC(O)C=C1 (configuration not stated)
active: dose: 20.0 mg/kg/injection, schedule: Q01DX009 (ip), vehicle: saline 152 % of control | dose: 25.0 mg/kg/injection, schedule: Q01DX009 (ip), vehicle: saline 160 % of control | dose: 40.0 mg/kg/injection, schedule: Q01DX009 (ip), vehicle: saline 152 % of control | dose: 50.0 mg/kg/injection, schedule: Q01DX009 (ip), vehicle: saline 178 % of control
inactive: dose: 3.12 mg/kg/injection, schedule: Q01DX009 (ip), vehicle: saline 118 % of control

COC(=O)C1=C2Nc3ccccc3C23CCN2C(O)C4(CC5CC67CCOC6CCN6CCC8(c9cccc(OC)c9N(C4)C58O)C67)C4OCCC4(C1)C23 (configuration not stated)
inactive: dose: 3.12 mg/kg/injection, schedule: Q01DX009 (ip), vehicle: Klucel (hydroxypropylcellulose) (HPC) 102 % of control | dose: 6.25 mg/kg/injection, schedule: Q01DX009 (ip), vehicle: Klucel (hydroxypropylcellulose) (HPC) 100 % of control | dose: 12.5 mg/kg/injection, schedule: Q01DX009 (ip), vehicle: Klucel (hydroxypropylcellulose) (HPC) 106 % of control | dose: 25.0 mg/kg/injection, schedule: Q01DX009 (ip), vehicle: Klucel (hydroxypropylcellulose) (HPC) 99 % of control | dose: 50.0 mg/kg/injection, schedule: Q01DX009 (ip), vehicle: Klucel (hydroxypropylcellulose) (HPC) 104 % of control

CC(=O)C[n+]1ccc(C)cc1Sc1ccccc1C
inactive: dose: 12.5 mg/kg/injection, schedule: Q04DX004 (ip), vehicle: saline with Tween-80 104 % of control | dose: 25.0 mg/kg/injection, schedule: Q04DX004 (ip), vehicle: saline with Tween-80 98 % of control | dose: 50.0 mg/kg/injection, schedule: Q04DX004 (ip), vehicle: saline with Tween-80 92 % of control | dose: 100.0 mg/kg/injection, schedule: Q04DX004 (ip), vehicle: saline with Tween-80 94 % of control

COC(=O)NC1C(C)OC(OC2C/C=C(/C)C3C=CC4C(OC5CC(OC6CCC(OC7CC(O)C(OC8CCC(O)C(C)O8)C(C)O7)C(C)O6)C(OC(C)=O)C(C)O5)C(C)CC(C)C4C3(C)/C(O)=C3/C(=O)OC4(CC(C=O)=CC(O)C4/C=C\2C)C3=O)CC1(C)[N+](=O)[O-] (configuration not stated)
inactive: dose: 2.5 mg/kg/injection, schedule: Q04DX004 (ip), vehicle: water 107 % of control | dose: 5.0 mg/kg/injection, schedule: Q04DX004 (ip), vehicle: water 96 % of control | dose: 10.0 mg/kg/injection, schedule: Q04DX004 (ip), vehicle: water 103 % of control

O=NN(CCCl)C(=O)NC1CCCCC1
active: dose: 6.0 mg/kg/injection, schedule: Q01DX005 (sc), vehicle: other 256 % of control | dose: 12.0 mg/kg/injection, schedule: Q01DX005 (sc), vehicle: other 256 % of control

S=c1nc[nH]c2nc[nH]c12
inactive: dose: 20.0 mg/kg/injection, schedule: Q04DX005 (ip), vehicle: alkali diluted with saline 96 % of control | dose: 80.0 mg/kg/injection, schedule: Q04DX005 (ip), vehicle: alkali diluted with saline 120 % of control

CCOC(=O)C(N)CSC(=O)NC (configuration not stated)
active: dose: 600.0 mg/kg/injection, schedule: Q04DX004 (ip), vehicle: saline 178 % of control
inactive: dose: 75.0 mg/kg/injection, schedule: Q04DX004 (ip), vehicle: saline 103 % of control | dose: 150.0 mg/kg/injection, schedule: Q04DX004 (ip), vehicle: saline 109 % of control | dose: 300.0 mg/kg/injection, schedule: Q04DX004 (ip), vehicle: saline 110 % of control
